Source: patent US20210230526A1, “Cell enclosure device and use for same” (National Agriculture and Food Research Organization, priority 2016, published 2021)

System: HepG2 cells
Assay: Metabolism of model drug (fluorescein diacetate) by HepG2 cell hepatic tissue-type chip and excretion and accumulation of metabolites to bile canaliculus-like structure
Assay type: in vitro ADME, human
Conditions: for distribution of fluorescein metabolized by HepG2 cells (green fluorescence): 1 hour uptake, after washing twice
Procedure: (1) A culture medium containing fluorescein diacetate (FD) as a model drug at a concentration of 250 μg/mL was prepared, and 5 mL thereof was poured into a dish (60 mm in diameter ).
(2) Next, the hepatic tissue-type chip on day 7 of culturing produced using HepG2 cells in Example 1 was immersed in the FD-containing culture medium prepared in (1) and cultured for 1 hour, such that the FD was taken into the cells.
(3) Next, the chip was transferred into a new dish (diameter: 60 mm), into which 5 mL of Hank's Balanced Salt Solution (HBSS) was poured, and washed.
(4) Next, the hepatic tissue-type chip was transferred into a new dish (diameter 60 mm ) into which 5 mL of a fresh culture medium was poured, immersed in the culture medium, and cultured for 1 hour. The discharging of fluorescein in the cells after 1 hour was confirmed by observation with a phase contrast microscope and a fluorescence microscope (refer to FIG. 8(A) to FIG. 8(C)).
(1) HBSS containing fluorescein diacetate (FD) as a model drug at a concentration of 25 μg/mL was prepared, and 5 mL thereof was poured into a dish (60 mm in diameter).
(2) Next, on day 32 of culturing, the hepatic tissue-type chip produced using HepG2 cells in Example 3 was immersed in the FD-containing HBSS prepared in (1) and cultured for 1 hour such that the FD was taken into the cells.
(3) Next, the result was transferred into a new dish (diameter 60 mm) into which 5 mL of HBSS was poured, and washed.
(4) Next, the hepatic tissue-type chip was transferred into a new dish (diameter 60 mm) into which 5 mL of fresh HBSS was poured, immersed in HBSS, and cultured for 1 hour. The discharge of fluorescein in the cells after 1 hour was confirmed by observation with a phase contrast microscope and a fluorescence microscope (refer to FIG. 12A (phase contrast microscope image) and FIG. 12B (fluorescence microscope image)). […]

For O=C1OC2(c3ccc(O)cc3Oc3cc(O)ccc32)c2ccccc21 [fluorescein], which “excretion of fluorescein from the cells” value (Example 2, chip on day 7 of culturing, 1 hour further culture in fresh culture medium after washing) is on record?
The value was “excreted and accumulated in the bile canaliculus-like structure”.

And the “distribution of fluorescein metabolized by HepG2 cells (green fluorescence)” value (“distribution of fluorescein metabolized” for short) (Example 2, chip on day 7 of culturing, FD 250 μg/mL in culture medium)?
Its value is “uniformly distributed in the cytoplasm”.

And the “excretion of fluorescein from the cells” value (Example 4, chip on day 32 of culturing, 1 hour further culture in fresh HBSS after washing)?
The value was “excreted and accumulated in the bile canaliculus-like structure”.

What about the “distribution of fluorescein metabolized” value (Example 4, chip on day 32 of culturing, FD 25 μg/mL in HBSS) of the same molecule?
The value was “uniformly distributed in the cytoplasm”.

What about the “excretion of fluorescein from the cells” value (Example 10, chip on day 35 of culturing, 1 hour further culture in fresh HBSS after washing) of the same molecule?
Its value is “excreted and accumulated in the bile canaliculus-like structure”.

And the “distribution of fluorescein metabolized” value (Example 10, chip on day 35 of culturing, FD 25 μg/mL in HBSS)?
The value was “uniformly distributed in the cytoplasm”.
